Results as given in patent US20240293432A1, “Use of Cannabidiol to Improve Rehabilitation in Lung Cancer” (priority 2023, published 2024).
Where two headings read alike, the source gives them in different places.

Key:
[1] = test system: lung tumor-bearing mice (luciferase expressing LLC cells); assay: Open field test, elevated plus maze and tumor growth in mice with orthotopic LLC lung tumors; type: in vivo, C57BL/6 mice
Method: FIGS. 5A-5C depict the effects of CBD on behavior in lung tumor bearing mice. […] D-Luciferin (150 mg/kg) was delivered by IP injection 10 minutes prior to imaging. Vehicle or CBD (25 mg/kg) was delivered by oral gavage every alternate day and Open Field (FIG. 5B) and EPM (FIG. 5C) tests were performed. Significant differences between means were determined by ANOVA with Holm Sidack post hoc test.
Effects of CBD on the behavior of lung tumor-bearing mice: To make a preliminary assessment of the effects of CBD on the behavior of lung tumor-bearing mice, a study was conducted which used the open field test and EPM to determine if behavioral deficiencies observed in FIGS. 4A-4C could be rescued. Lung tumors were initiated in C57BL/6 mice via intratracheal instillation of 5×10^5 luciferase expressing LLC cells (Perkin Elmer) and tumor growth was monitored using the Perkin Elmer In Vivo Imaging System (IVIS). Treatment groups were assigned on day 9 (FIG. 5A) to ensure each group (n=4) contained tumors of approximately the same size based on luminescence readings. CBD (25 mg/kg) or vehicle (2:1:18 parts ethanol:Tween-80:PBS) treatments by oral gavage were started on day 10 and repeated every alternate day, two hours prior to the beginning of behavioral testing. […] This is consistent with previous studies of CBD treatment in naïve mice. […] (FIG. 5B).
This may indicate less interest in the corner zone and, therefore, less anxiety. […] The effects of CBD treatment in lung cancer can be investigated using additional tests to measure pain (cold plate, Von Frey, conflict avoidance) and endurance (treadmill) to discover how CBD dose and combination with cancer therapies can improve these outcomes.

[2] = test system: H1975 lung cancer cell line; assay: CellTiter Glo viability assay, drugs alone or combined with CBD; type: cell-based
Method: Viability after treatment with each cancer drug was compared with and without CBD (*=p<0.05 Student's t test).
Effects of CBD combination with Standard of Care drugs in lung cancer cells: A study was conducted which screened cannabinoids, including CBD, for their ability to synergize with FDA-approved anti-cancer drugs to reduce the viability of cancer cells in vitro. […] IC50 was calculated using GraphPad Prism (dose-response inhibition), and Combination Index (CI) was calculated using CompuSyn software. […] Because the major driver mutation in this cell line is known (KRAS), the study evaluated potential drug synergy between CBD and the G12D specific KRAS inhibitor MTRX1133.

[3] = test system: LLC lung cancer cell line; assay: cells; type: cell-based, mouse
[4] = test system: LLC flank tumor-bearing mice; assay: Open field test and elevated plus maze in mice with subcutaneous LLC flank tumors after chemotherapy; type: in vivo, C57BL/6 mice
Method: FIGS. 4A-4C depict that the behavior of mice is altered by tumor growth and by chemotherapy indicating increased pain and anxiety. C57BL/6 mice were inoculated with 5×105 LLC1 on right flank on Day 0. Cisplatin or Osimertinib were administered in doses of 10 mg/kg by intraperitoneal injection on the days indicated. DMSO+sterile saline was used as a vehicle control. Behavior was assayed using the open field test and EPM according to the timeline depicted in FIG. 4A. The open field (FIG. 4B) and EPM (FIG. 4C) tests were recorded using AnyMaze software to track animal speed, movement, and location. Significant differences between means were determined by ANOVA with Holm Sidack post hoc test p<0.05.
Alterations in behavior in tumor-bearing mice following chemotherapy treatment: To make a preliminary assessment of cancer and chemotherapy-derived symptoms (anxiety, reduced mobility, and pain) in mice, a study was conducted which used the syngeneic Lewis Lung Carcinoma (LLC) model of subcutaneous flank tumors. C57BL/6 mice were injected with 5×10^5 LLC cells on the right flank. Tumor-bearing mice were treated with Cisplatin, Osimertinib, or vehicle, as outlined in FIGS. 5A-5C. The study performed the open field test (a sensory motor test used to measure general activity level) and the elevated plus maze (EPM) (test for anxiety behavior) on tumor-bearing mice throughout the period of tumor growth and treatment (FIG. 4A). In these tests, reduced physical activity was used an indicator of increased pain, and decreases in both distances traveled and time spent mobile over the tumor growth period were observed. […] Overall, the mice spent very little time in the open arms regardless of time point or treatment group making the measure unreliable. […] One limitation of this model is the contribution of tumor location on the hind flank to decreased mobility. To overcome this limitation, future studies can use genetically engineered models of tumor growth in the lungs.

[5] = 25 mg/kg oral gavage every alternate day
[6] = LLC flank tumor mice, 10 mg/kg intraperitoneal

| Structure (SMILES) | Number of entries into the corner zone (open field) [1, 5] | Time mobile in the EPM [1, 5] | Time spent in the center zone (open field) [1, 5] | Time the animal's head was within the open center zone (EPM) [1, 5] | Distance travelled in the open field test ([1]; 25 mg/kg oral gavage every alternate day, initially) | Time mobile in the open field ([1]; 25 mg/kg oral gavage every alternate day, later as tumor growth progressed) | Tumor growth ([1]; CBD alone, 25 mg/kg oral gavage, IVIS luminescence) | IC50 ([2]; Homo sapiens, NCI-H1975, 48 h, read-out: IC50 (μM), cell viability reduction) | IC50 ([2]; Homo sapiens, NCI-H1975, read-out: IC50 of CBD alone (FIG. 2 legend)) | IC50 ([3]; Mus musculus, 48 hr, combinations with 10 μM CBD, read-out: IC50 (μM), cell viability reduction) | IC50 ([3]; Mus musculus, n=3, read-out: IC50 of CBD alone (FIG. 2 legend)) | IC50 ([2]; H1975, 48 hr, combinations with 10 μM CBD, read-out: IC50 (μM), cell viability reduction) | IC50 ([3]; 48 hr, combinations with 10 μM CBD, read-out: IC50 (μM), cell viability reduction) | Anxiety compared to vehicle [4, 6] | Mobility compared to vehicle [4, 6] | Time spent in the open center zone (EPM) compared to vehicle [4, 6] | IC50 ([2]; Homo sapiens, NCI-H1975, H1975, 48 hr, combinations with 10 μM CBD, read-out: IC50 (μM), cell viability reduction) | Anxiety compared to vehicle ([4]; mouse, in vivo, ip, 10 mg/kg) |
| --- | --- | --- | --- | --- | --- | --- | --- | --- | --- | --- | --- | --- | --- | --- | --- | --- | --- | --- |
| C=C(C)[C@@H]1CCC(C)=C[C@H]1c1c(O)cc(CCCCC)cc1O [CBD, Cannabidiol] | trending decrease | significant increases | significant increases | significant increases | no significant change | significant increases | significant reduction in tumor growth using CBD alone was not observed | 19.5 µM | 21 µM | 19 µM | 14.5 µM |  |  |  |  |  |  |  |
| N.N.[Cl][Pt][Cl] [Cisplatin] |  |  |  |  |  |  |  |  |  |  |  | 28 µM | 3.1 µM | increased anxiety | greater reduction in mobility | significantly decreased |  |  |
| C=CC(=O)Nc1cc(Nc2nccc(-c3cn(C)c4ccccc34)n2)c(OC)cc1N(C)CCN(C)C [Osimertinib] |  |  |  |  |  |  |  |  |  |  |  |  |  |  |  | significantly decreased | 3.7 µM | increased anxiety |
